Measurements published in patent publication US11248006B2, “Macrocyclic derivative of pyrazol[3,4-d]pyrimidin-3-one, pharmaceutical composition and use thereof” (SHANGHAI DE NOVO PHARMATECH CO., LTD., priority 2017, dated 2022).

How the values were obtained:
[1] = tested on: Human osteosarcoma cell line MG63; assay: Cell proliferation assay (CCK-8 cell viability); assay type: cell-based; details: CCK-8, 72 hours incubation
Procedure: In the present disclosure, cell assays were used to assess the biological activity of the compound. Human osteosarcoma cell line MG63 (ATCC CRL-1427) was cultured in a 96-well plate of Dulbecco's Modified Eagle's medium, supplemented with 10% fetal bovine serum and 1% (v/v) L-glutamine, and the cultivation environment was 37° C. and 5% CO2. Compound concentrations ranged from 4.5 nM to 30 μM. The Wee1 inhibitor stock solution was dissolved in DMSO, added to the medium with an indicated concentration and incubated for 72 hours. Negative control cells were only treated with vehicle. In some assays, a known Wee1 inhibitor was added as a positive control. Cell viability was measured using a Cell Counting Kit-8 (CCK-8, Sigma-Aldrich) under the instruction of the product specification. The data was analyzed using Graphpad software to obtain a fitted curve of IC50 values against the compounds.

Wee1 [2] = target: T1, Wee1 (Homo sapiens (Human), UniProt P30291); assay: Wee1 enzyme catalysis assay (ATP-Glo Max kinase luminescence detection kit); assay type: biochemical; details: Wee1 enzymatic activity, 10 μM ATP, Poly (Lys, Tyr) substrate, 30° C. for 50 minutes
Procedure: In the present disclosure, Wee1 enzyme catalysis assay was carried out using the ATP-Glo Max kinase luminescence detection kit (Promega). Kinase activity was assessed by quantitative detection of the amount of ATP retained in the solution following the kinase reaction. The luminescent signal in the assay is proportional to the amount of ATP and inversely proportional to the kinase activity. The concentration of the compound in the assay ranged from 0.5 nM to 30 μM. The compound was dissolved in 10% DMSO, and 5 μL of the solution was added to 50 μL of the reaction, and the concentration of DMSO in the final reaction was 1%. The reaction was carried out at 30° C. for 50 minutes. 40 mM trishydroxymetyl aminomethane, pH 7.4, 10 mM MgCl2, 0.1 mg/ml BSA, 2 mM DTT, 0.1 mg/ml Poly (Lys, Tyr) substrate, 10 μM ATP and Wee1 were contained in the reaction mixture. After the enzymatic reaction, 50 μL of ATP-Glo Max kinase luminescence detection assay solution (Promega) was added and incubated for 15 minutes at room temperature. The luminescent signal was measured using a microplate reader. In some assays, a known Wee1 inhibitor was added as a positive control. Luminance data was analyzed using Graphpad software. The difference between the luminescence intensity in the absence of Wee1 and the luminescence intensity in the presence of Wee1 was defined as 100% activity (Lut−Luc). Using the luminescence intensity signal (Lu) in the presence of the compound, the % activity was calculated as follows: % Activity={(Lut−Lu)/(Lut−Luc)}×100%, wherein, Lu=luminous intensity of the compound Non-linear regression analysis was employed to plot the dose-effect curve of % activity value and the corresponding concentrations for the series of compounds. The equation is Y=B+(TB)/1+10((Log EC50−X)×Hill Slope), Y=% activity, B=minimum activity percentage, T=maximum activity percentage, X=logarithm of compound and Hill slope=slope factor or Hill coefficient. The IC50 value was determined by the concentration of a compound that is required to obtain 50% of the maximum effect.

Wee1 [3] = target: T1, Wee1; assay: Cell activity of Wee1 by p-CDK1Y15 ELISA assay in WiDr cells; assay type: cell-based; details: amount of p-CDK1Y15, human colon adenocarcinoma cell line WiDr, 24 hours incubation
Procedure: In the present disclosure, cellular assays were used to assess the biological activity of the compound. This assay was conducted using the human colon adenocarcinoma cell line WiDr. The activity of a specific Wee1 inhibitor was evaluated using p-CDK1Y15 ELISA assay method. The detailed assay method is described as follows:
WiDr cells were cultured in Dulbecco's Modified Eagle's medium containing 10% FBS at 37° C. and 5% CO2. Compound concentrations ranged from 0.5 nM to 30 μM. The compound was diluted, added to a 24-well plate and incubated with the cells for 24 hours. DMSO was used as a negative control. A known Wee1 inhibitor was added as a positive control in some assays. According to the instruction of the manufacturer, in the p-CDK1Y15 assay, cells were lysed and tested by a colorimetric ELISA kit to determine the amount of p-CDK1Y15. The optical density was measured using a spectrophotometer. The OD data was analyzed using Graphpad software to obtain a fitted curve of IC50 values against the compounds.

T1 sequence (P30291 whole entry): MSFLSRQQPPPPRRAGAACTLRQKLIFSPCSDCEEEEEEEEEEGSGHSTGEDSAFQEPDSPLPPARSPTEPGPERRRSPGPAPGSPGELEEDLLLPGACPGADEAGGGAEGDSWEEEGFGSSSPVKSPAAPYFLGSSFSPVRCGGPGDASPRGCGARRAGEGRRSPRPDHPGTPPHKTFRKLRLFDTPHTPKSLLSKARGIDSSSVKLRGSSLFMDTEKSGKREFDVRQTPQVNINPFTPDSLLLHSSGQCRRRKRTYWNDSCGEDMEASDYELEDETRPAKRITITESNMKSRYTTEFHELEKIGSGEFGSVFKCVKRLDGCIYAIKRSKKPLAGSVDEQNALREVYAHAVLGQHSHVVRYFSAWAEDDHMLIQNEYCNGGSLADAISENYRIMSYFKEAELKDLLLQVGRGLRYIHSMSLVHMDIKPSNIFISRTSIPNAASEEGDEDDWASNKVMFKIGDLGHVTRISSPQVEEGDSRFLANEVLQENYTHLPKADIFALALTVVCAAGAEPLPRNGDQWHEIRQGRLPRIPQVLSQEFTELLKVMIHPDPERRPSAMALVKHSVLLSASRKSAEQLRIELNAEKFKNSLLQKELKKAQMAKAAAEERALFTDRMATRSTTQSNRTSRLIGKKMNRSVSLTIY

Compound	IC50 ([1]; Homo sapiens, MG-63, 72 h)	IC50 (Wee1 [2])	IC50 [1]	IC50 (Wee1 [3])
C=CCn1c(=O)c2cnc(Nc3ccc(N4CCN(C)CC4)cc3)nc2n1-c1cccc(C(C)(C)O)n1 [AZD1775, 2-allyl-1-(6-(2-hydroxypropan-2-yl)pyridin-2-yl)-6-((4-(4-methylpiperazin-1-yl)phenyl)amino)-1H-pyrazolo[3,4-d]pyrimidin-3 (2H)-one, reference compound]	785 nM	–	–	–
CN1Cc2cc(Nc3ncc4c(=O)n5n(c4n3)-c3ccc4c(n3)N(CCC/C=C\C5)C(=O)CO4)ccc2C2(CC2)C1 [Compound 3-2-2]	–	11 nM	261 nM	139 nM
CN1CCN(c2ccc(Nc3ncc4c(=O)n5n(c4n3)-c3ccc4c(n3)N(CCC/C=C\C5)C(=O)CO4)cc2)CC1 [Compound 3-3-7]	571 nM	13 nM	–	250 nM
COc1cc(Nc2ncc3c(=O)n4n(c3n2)-c2ccc3c(n2)N(CCC/C=C\C4)C(=O)CO3)cc(N2CCN(C)CC2)c1 [Compound 3-3-13]	82 nM	–	–	68.8 nM
CN1CCC(n2ccc3cc(Nc4ncc5c(=O)n6n(c5n4)-c4ccc5c(n4)N(CCC/C=C\C6)C(=O)CO5)ccc32)C1 (stereo not shown) [Compound 3-7-6]	554 nM	9.6 nM	–	–
CN1CCn2c(cc3cc(Nc4ncc5c(=O)n6n(c5n4)-c4ccc5c(n4)N(CCC/C=C\C6)C(=O)CO5)ccc32)C1 [Compound 3-7-8]	654 nM	12.3 nM	–	–
CN1CCC(c2c[nH]c3cc(Nc4ncc5c(=O)n6n(c5n4)-c4ccc5c(n4)N(CCC/C=C\C6)C(=O)CO5)ccc23)CC1 [Compound 3-7-13]	150 nM	–	–	114 nM
CN1CCN(c2cc(Nc3ncc4c(=O)n5n(c4n3)-c3ccc4c(n3)N(CCC/C=C\C5)C(=O)CO4)cc3c2ccn3C)CC1 [Compound 3-7-16]	99.1 nM	–	–	31.4 nM
CN1CCN(c2cc(Nc3ncc4c(=O)n5n(c4n3)-c3ccc4c(n3)N(CCC/C=C\C5)C(=O)CO4)cc3ccoc23)CC1 [Compound 3-7-17]	270 nM	–	–	–
CN1CCN(c2ccc3cc(Nc4ncc5c(=O)n6n(c5n4)-c4ccc5c(n4)N(CCC/C=C\C6)C(=O)CO5)ccc3c2)CC1 [Compound 3-8-1]	160 nM	–	–	–
C=CCn1c(=O)c2cnc(SC)nc2n1-c1ccc2c(n1)N(CCCC#CCOC1CCCCO1)C(=O)CO2 (stereo not shown) [Compound 10-1-1]	–	9.9 nM	490 nM	–

The remaining lines, values ahead:

IC50 ([1]; Homo sapiens, MG-63, 72 h)	IC50 (Wee1 [2])	IC50 [1]	IC50 (Wee1 [3])	Compound
–	6.7 nM	2400 nM	–	CN1CCN(c2ccc(Nc3ncc4c(=O)n5n(c4n3)-c3cccc(n3)OCCCC/C=C/C5)cc2)CC1 [Compound 1-1-1]
593 nM	5.4 nM	–	–	CN1Cc2cc(Nc3ncc4c(=O)n5n(c4n3)-c3cccc(n3)OCC/C=C\C5)ccc2C2(CC2)C1 [Compound 1-2-1]
439 nM	3.7 nM	–	–	CC(=O)N1CCC/C=C\Cn2c(=O)c3cnc(Nc4ccc5c(c4)CN(C)CC54CC4)nc3n2-c2cccc1n2 [Compound 2-2-1]
–	4.9 nM	1150 nM	336 nM	C=CCCCCN1C(=O)COc2ccc(-n3c4nc(SC)ncc4c(=O)n3CC=C)nc21 [Compound 3-1-1]
–	7.6 nM	–	326 nM	CN1Cc2cc(Nc3ncc4c(=O)n5n(c4n3)-c3ccc4c(n3)N(CC/C=C\C5)C(=O)CO4)ccc2C2(CC2)C1 [Compound 3-2-3]
–	5.5 nM	295 nM	–	CN1CCN(c2ccc(Nc3ncc4c(=O)n5n(c4n3)-c3ccc4c(n3)N(CCC/C=C\C5)C(=O)CO4)cc2CO)CC1 [Compound 3-3-1]
567 nM	3.3 nM	–	114 nM	COc1cc(Nc2ncc3c(=O)n4n(c3n2)-c2ccc3c(n2)N(CCC/C=C\C4)C(=O)CO3)ccc1N1CCN(C)CC1 [Compound 3-3-2]
232 nM	2.4 nM	–	–	CN1Cc2cc(Nc3ncc4c(=O)n5n(c4n3)-c3ccc4c(n3)N(CCC/C=C\C5)C(=O)CO4)ccc2C(C)(C)C1 [Compound 3-5-1]
–	6.1 nM	327 nM	–	CC(C)(C)OC(=O)N1Cc2cc(Nc3ncc4c(=O)n5n(c4n3)-c3ccc4c(n3)N(CCC/C=C\C5)C(=O)CO4)ccc2C(C)(C)C1 [Compound 3-5-2]
–	9.5 nM	222 nM	80.6 nM	CC(C)(C)OC(=O)N1CCC(n2ccc3cc(Nc4ncc5c(=O)n6n(c5n4)-c4ccc5c(n4)N(CCC/C=C\C6)C(=O)CO5)ccc32)CC1 [Compound 3-7-3]
60.4 nM	3.9 nM	–	38.8 nM	CN1CCC(n2ccc3cc(Nc4ncc5c(=O)n6n(c5n4)-c4ccc5c(n4)N(CCC/C=C\C6)C(=O)CO5)ccc32)CC1 [Compound 3-7-5]
–	6.6 nM	44.3 nM	51.4 nM	CC(C)N1CCC(n2ccc3cc(Nc4ncc5c(=O)n6n(c5n4)-c4ccc5c(n4)N(CCC/C=C\C6)C(=O)CO5)ccc32)CC1 [Compound 3-7-7]
193 nM	9.2 nM	–	–	CS(=O)(=O)CCN1CCC(n2ccc3cc(Nc4ncc5c(=O)n6n(c5n4)-c4ccc5c(n4)N(CCC/C=C\C6)C(=O)CO5)ccc32)CC1 [Compound 3-7-9]
56.4 nM	8.5 nM	–	–	O=C1COc2ccc3nc2N1CCC/C=C\Cn1c(=O)c2cnc(Nc4ccc5c(ccn5C5CCN(CCO)CC5)c4)nc2n1-3 [Compound 3-7-10]
–	7.9 nM	211 nM	–	CC(C)N1CCC(n2ccc3cc(Nc4ncc5c(=O)n6n(c5n4)-c4ccc5c(n4)N(CCC/C=C\C6)C(=O)CO5)ccc32)CC1 [Compound 3-7-15]
323 nM	4.4 nM	–	–	CN1Cc2cc(Nc3ncc4c(=O)n5n(c4n3)-c3ccc4c(n3)N(CCO4)C(=O)CC/C=C\C5)ccc2C2(CC2)C1 [Compound 8-1-2]
